≈ marks a conversion by molar mass, not a printed value. Calls of active or inactive are those of the source. The rule behind the calls is not given here.
Columns and labels:
[1] = Cytotoxicity against human 9KB cells; type: functional; conditions: read-out: ED50 (the source's name)
[2] = system: P388; assay: Antitumor activity against mouse P388 cells in mouse assessed as median survival time at 8 mg/kg relative to control; type: functional, organism-based; parameters: dose 8 mg/kg
[3] = system: L1210; assay: Cytotoxicity against mouse L1210 cells; type: functional, cell-based
[4] = system: P388; assay: Antitumor activity against mouse P388 cells in mouse assessed as median survival time at 1.25 mg/kg relative to control; type: functional
[5] = system: Lewis lung carcinoma; assay: Cytotoxicity against mouse LLC cells; type: functional, cell-based
[6] = system: B16; assay: Cytotoxicity against mouse B16 cells; type: functional, cell-based

In the case of `C[C@]12CC[C@H]3[C@@H](CCC4=C[C@@H](O[C@@H]5OC[C@@H](O)[C@H](O)[C@H]5O)CC[C@@]43C=O)[C@@]1(O)CC[C@@H]2C1=CC(=O)OC1` [DEGLUCOHYRCANOSIDE], the EC50 [1] is reported as 0.02 µg/mL (≈ 0.0386 µM) and the Activity [2] is reported as “inactive”.
In the case of `C[C@]12CC[C@H]3[C@@H](CCC4=C[C@@H](O[C@@H]5OC[C@@H](O[C@@H]6O[C@H](CO)[C@@H](O)[C@H](O)[C@H]6O)[C@H](O)[C@H]5O)CC[C@@]43C=O)[C@@]1(O)CC[C@@H]2C1=CC(=O)OC1` [HYRCANOSIDE], the EC50 [1] is reported as 0.1 µg/mL (≈ 0.147 µM), the Activity [3] is reported as “inactive” and the T/C [4] is reported as 133%. The Activity [5] was “inactive” and the Activity [6] was “inactive”.

From ChEMBL document CHEMBL1158646, “Potential Antitumor Agents: A Cytotoxic Cardenolide From Coronilla varia” (1979)
